Test results as given in US11673910B2, “Macrolides with modified desosamine sugars and uses thereof” (Zikani Therapeutics, Inc., priority 2017, dated 2023).
In brackets after ≈: the same amount, converted by molar mass.

Columns and labels:
Format in all cases: cell-based
S. aureus strain MP-12 = experiment: Broth dilution MIC determination (CLSI) against S. aureus strain MP-12; conditions: Staphylococcus aureus, MP12, strain MP-12
Outline: (§1)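 Reported scores reflect MIC ranges, with +++ at or below 4 mg/L, ++ from 8 up to under 32 mg/L, and + at 32 mg/L or higher. The macrolides were tested following CLSI broth dilution procedures.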

[1] = system: K. pneumoniae strain MP-548; experiment: Broth dilution MIC determination (CLSI) against K. pneumoniae strain MP-548; conditions: Klebsiella pneumoniae, MP548
Outline: as §1

[2] = system: P. aeruginosa strain MP-3; experiment: Broth dilution MIC determination (CLSI) against P. aeruginosa strain MP-3; conditions: Pseudomonas aeruginosa, MP3
Outline: as §1

[3] = system: A. baumannii strain MP-15; experiment: Broth dilution MIC determination (CLSI) against A. baumannii strain MP-15; conditions: Acinetobacter baumannii, MP15
Outline: as §1

E. coli strain MP-4 = experiment: Broth dilution MIC determination (CLSI) against E. coli strain MP-4; conditions: Escherichia coli, MP4
Outline: as §1

| SMILES | MIC (S. aureus strain MP-12) | MIC [1] | MIC [2] | MIC [3] | MIC (E. coli strain MP-4) |
| --- | --- | --- | --- | --- | --- |
| CC[C@H]1OC(=O)[C@@]2(C)CCO[C@](C)(C[C@@H](C)CN[C@H](C)[C@H]3NC(=O)O[C@@]31C)[C@H](O[C@@H]1O[C@H](CNCC3CC3)C[C@H](N(C)C)[C@H]1O)[C@@H](C)C2=O [Compound 197] | ≥ 32 µg/mL | ≥ 32 µg/mL | ≥ 32 µg/mL | ≥ 32 µg/mL | ≥ 32 µg/mL |
| CC[C@H]1OC(=O)[C@@]2(C)CCO[C@](C)(C[C@@H](C)CN[C@H](C)[C@H]3NC(=O)O[C@@]31C)[C@H](O[C@@H]1O[C@H](CO)C[C@H](N(C)C)[C@H]1O)[C@@H](C)C2=O [Compound 195] | ≥ 32 µg/mL | ≥ 32 µg/mL | ≥ 32 µg/mL | ≥ 32 µg/mL | ≥ 32 µg/mL |
| CC[C@H]1OC(=O)C(C)C(=O)[C@H](C)[C@@H](O[C@@H]2O[C@H](CNC3CC3)CC(N(C)C)[C@H]2O)[C@](C)(OC)C[C@@H](C)CN(C)[C@H](C)[C@H]2N(C)C(=O)O[C@]12C (stereo partly shown) [Compound 191] | ≥ 32 µg/mL | 8 to 32 µg/mL (≈ 11.5 to 45.9 µM) | ≥ 32 µg/mL | ≥ 32 µg/mL | ≤ 4 µg/mL |
| CC[C@H]1OC(=O)[C@@]2(C)CCOC(C)(C[C@@H](C)CN(CC)[C@H](C)[C@H]3NC(=O)O[C@@]31C)[C@H](O[C@@H]1OC(C)CC(N(C)C)C1O)[C@@H](C)C2=O (stereo partly shown) [Compound 221] | ≤ 4 µg/mL | ≤ 4 µg/mL | ≥ 32 µg/mL | ≥ 32 µg/mL | ≤ 4 µg/mL |
| CC[C@H]1OC(=O)C(C)C(=O)[C@H](C)[C@@H](OC2OC(CN(C)C)CC(N(C)C)C2O)[C@](C)(OC)C[C@@H](C)CN(C)[C@H](C)[C@H]2NC(=O)O[C@@]21C (stereo partly shown) [Compound 159, 3-Descladinosyl-3-oxo-6-O-methyl-11,12-dideoxy-12,11-(oxycarbonylimino)-6′-dimethylamino Azithromycin] | ≥ 32 µg/mL | 8 to 32 µg/mL (≈ 11.9 to 47.7 µM) | ≥ 32 µg/mL | ≥ 32 µg/mL | ≤ 4 µg/mL |
| CC[C@H]1OC(=O)C(C)C(=O)[C@H](C)[C@@H](O[C@@H]2OC(CNCc3cccc(F)c3)CC(N(C)C)C2O)[C@](C)(OC)C[C@@H](C)CN[C@H](C)[C@H]2NC(=O)O[C@@]21C (stereo partly shown) [Compound 30] | ≥ 32 µg/mL | ≥ 32 µg/mL | ≥ 32 µg/mL | ≥ 32 µg/mL | ≤ 4 µg/mL |
| CC[C@H]1OC(=O)C(C)C(=O)[C@H](C)[C@@H](O[C@@H]2OC(CNCc3ccc(F)cc3F)CC(N(C)C)C2O)[C@](C)(OC)C[C@@H](C)CN[C@H](C)[C@H]2NC(=O)O[C@@]21C (stereo partly shown) [Compound 31] | ≥ 32 µg/mL | ≥ 32 µg/mL | ≥ 32 µg/mL | ≥ 32 µg/mL | ≤ 4 µg/mL |
| CC[C@H]1OC(=O)[C@@]2(C)CCO[C@](C)(C[C@@H](C)CN[C@H](C)[C@H]3NC(=O)O[C@@]31C)[C@H](O[C@@H]1O[C@H](CN3CCCCC3)C[C@H](N(C)C)[C@H]1O)[C@@H](C)C2=O [Compound 199] | ≥ 32 µg/mL | ≥ 32 µg/mL | ≥ 32 µg/mL | ≥ 32 µg/mL | ≥ 32 µg/mL |
| CC[C@H]1OC(=O)C(C)(C)C(=O)[C@H](C)[C@@H](O[C@@H]2O[C@H](CNC3CC3)CC(N(C)C)[C@H]2O)[C@](C)(OC)C[C@@H](C)CN[C@H](C)[C@H]2NC(=O)O[C@@]21C (stereo partly shown) [Compound 192, 2-Methyl-3-descladinosyl-3-oxo-6-O-methy 1-N9a-desmethyl-11,12-dideoxy-12,11-(oxycarbonylimino)-6′-cylcopropylamino Azithromycin] | ≥ 32 µg/mL | ≥ 32 µg/mL | ≥ 32 µg/mL | ≥ 32 µg/mL | ≤ 4 µg/mL |

The next lines start with the values.

| MIC (S. aureus strain MP-12) | MIC [1] | MIC [2] | MIC [3] | MIC (E. coli strain MP-4) | SMILES |
| --- | --- | --- | --- | --- | --- |
| 8 to 32 µg/mL (≈ 11.3 to 45.4 µM) | 8 to 32 µg/mL (≈ 11.3 to 45.4 µM) | ≥ 32 µg/mL | 8 to 32 µg/mL (≈ 11.3 to 45.4 µM) | ≤ 4 µg/mL | CC[C@H]1OC(=O)C(C)C(=O)[C@H](C)[C@@H](OC2OC(CN3CC(F)(F)C3)CC(N(C)C)C2O)[C@](C)(OC)C[C@@H](C)CN[C@H](C)[C@H]2NC(=O)O[C@@]21C (stereo partly shown) [Compound 139, 3-Descladinosyl-3-oxo-6-O-methyl-N9a-desmethyl-11,12-dideoxy-12,11-(oxycarbonylimino)-6′-(3″,3″-difluoroazetidinyl) Azithromycin] |
| ≥ 32 µg/mL | ≥ 32 µg/mL | ≥ 32 µg/mL | ≥ 32 µg/mL | ≥ 32 µg/mL | CC[C@H]1OC(=O)[C@@]2(C)CC/C(=N\O)CO[C@](C)(C[C@@H](C)CN[C@H](C)[C@H]3NC(=O)O[C@@]31C)[C@H](OC1OC(C)CC(N(C)C)C1O)[C@@H](C)C2=O (stereo partly shown) [Compound 227] |
| ≥ 32 µg/mL | ≥ 32 µg/mL | ≥ 32 µg/mL | ≥ 32 µg/mL | ≤ 4 µg/mL | CC[C@H]1OC(=O)C(C)C(=O)[C@H](C)[C@@H](O[C@@H]2OC(CNCc3ccc(F)cn3)CC(N(C)C)C2O)[C@](C)(OC)C[C@@H](C)CN[C@H](C)[C@H]2NC(=O)O[C@@]21C (stereo partly shown) [Compound 38] |
| 8 to 32 µg/mL (≈ 11.5 to 45.9 µM) | 8 to 32 µg/mL (≈ 11.5 to 45.9 µM) | ≥ 32 µg/mL | 8 to 32 µg/mL (≈ 11.5 to 45.9 µM) | ≤ 4 µg/mL | CC[C@H]1OC(=O)C(C)C(=O)[C@H](C)[C@@H](OC2OC(CN(C)C3CC3)CC(N(C)C)C2O)[C@](C)(OC)C[C@@H](C)CN(C)[C@H](C)[C@H]2NC(=O)O[C@@]21C (stereo partly shown) [Compound 157, 3-Descladinosyl-3-oxo-6-O-methyl-11,12-dideoxy-12,11-(oxycarbonylimino)-6′-[N-(methyl)cyclopropylamino]Azithromycin] |
| ≥ 32 µg/mL | ≥ 32 µg/mL | ≥ 32 µg/mL | ≥ 32 µg/mL | ≥ 32 µg/mL | CC[C@H]1OC(=O)C(C)C(=O)[C@H](C)[C@@H](OC2OC(CN3CCN(C(C)=O)CC3)CC(N(C)C)C2O)[C@](C)(OC)C[C@@H](C)CN[C@H](C)[C@H]2NC(=O)O[C@@]21C (stereo partly shown) [Compound 125, 3-Descladinosyl-3-oxo-6-O-methyl-N9a-desmethyl-11,12-dideoxy-12,11-(oxycarbonylimino)-6′-(1-(4-acetyl)-piperazinyl) Azithromycin] |
| ≥ 32 µg/mL | ≥ 32 µg/mL | ≥ 32 µg/mL | ≥ 32 µg/mL | 8 to 32 µg/mL (≈ 12 to 47.8 µM) | CC[C@H]1OC(=O)C(C)C(=O)[C@H](C)[C@@H](OC2OC(CN3CCC3)CC(N(C)C)C2O)[C@](C)(OC)C[C@@H](C)CN[C@H](C)[C@H]2NC(=O)O[C@@]21C (stereo partly shown) [Compound 121, 3-Descladinosyl-3-oxo-6-O-methyl-N9a-desmethyl-11,12-dideoxy-12,11-(oxycarbonylimino)-6′-(1-azetininyl) Azithromycin] |
| 8 to 32 µg/mL (≈ 11.5 to 46 µM) | ≤ 4 µg/mL | ≥ 32 µg/mL | 8 to 32 µg/mL (≈ 11.5 to 46 µM) | ≤ 4 µg/mL | CC[C@H]1OC(=O)C(C)C(=O)[C@H](C)[C@@H](OC2OC(CNC34CC(C3)C4)CC(N(C)C)C2O)[C@](C)(OC)C[C@@H](C)CN[C@H](C)[C@H]2NC(=O)O[C@@]21C (stereo partly shown) [Compound 141, 3-Descladinosyl-3-oxo-6-O-methyl-N9a-desmethyl-11,12-dideoxy-12,11-(oxycarbonylimino)-6′-(bicyclo[1.1.1]pentanylamino) Azithromycin] |
| ≥ 32 µg/mL | 8 to 32 µg/mL (≈ 11.3 to 45.3 µM) | ≥ 32 µg/mL | ≥ 32 µg/mL | ≤ 4 µg/mL | CC[C@H]1OC(=O)C(C)C(=O)[C@H](C)[C@@H](O[C@@H]2OC(CNc3ccccn3)CC(N(C)C)C2O)[C@](C)(OC)C[C@@H](C)CN[C@H](C)[C@H]2NC(=O)O[C@@]21C (stereo partly shown) [Compound 51] |
| ≥ 32 µg/mL | ≥ 32 µg/mL | ≥ 32 µg/mL | ≥ 32 µg/mL | ≥ 32 µg/mL | CC[C@H]1OC(=O)C(C)C(=O)[C@H](C)[C@@H](O[C@@H]2O[C@H](CN(C)C(=O)CNC)CC(N(C)C)[C@H]2O)[C@](C)(OC)C[C@@H](C)CN[C@H](C)[C@H]2NC(=O)O[C@@]21C (stereo partly shown) [Compound 173, 3-Descladinosyl-3-oxo-6-O-methyl-N9a-desmethyl-11,12-dideoxy-12,11-(oxycarbonylimino)-6′-N-methyl-2″-methylamino-acetamide Azithromycin] |
| ≥ 32 µg/mL | 8 to 32 µg/mL (≈ 11.7 to 46.7 µM) | ≥ 32 µg/mL | ≥ 32 µg/mL | ≤ 4 µg/mL | CC[C@H]1OC(=O)C(C)C(=O)[C@H](C)[C@@H](O[C@@H]2O[C@H](CNC(C)C)CC(N(C)C)[C@H]2O)[C@](C)(OC)C[C@@H](C)CN(C)[C@H](C)[C@H]2NC(=O)O[C@@]21C (stereo partly shown) [Compound 164, 3-Descladinosyl-3-oxo-6-O-methyl-11,12-dideoxy-12,11-(oxycarbonylimino)-6′-isopropylamino Azithromycin] |
| ≥ 32 µg/mL | ≥ 32 µg/mL | ≥ 32 µg/mL | ≥ 32 µg/mL | ≥ 32 µg/mL | CC[C@H]1OC(=O)C(C)C(=O)[C@H](C)[C@@H](O[C@@H]2OC(CNCc3cn(-c4cncnc4)nn3)CC(N(C)C)C2O)[C@](C)(OC)C[C@@H](C)CN[C@H](C)[C@H]2NC(=O)O[C@@]21C (stereo partly shown) [Compound 24] |
| 8 to 32 µg/mL (≈ 11.7 to 46.9 µM) | 8 to 32 µg/mL (≈ 11.7 to 46.9 µM) | ≥ 32 µg/mL | 8 to 32 µg/mL (≈ 11.7 to 46.9 µM) | ≤ 4 µg/mL | CC[C@H]1OC(=O)C(C)C(=O)[C@H](C)[C@@H](OC2OC(CNC3(C)CC3)CC(N(C)C)C2O)[C@](C)(OC)C[C@@H](C)CN[C@H](C)[C@H]2NC(=O)O[C@@]21C (stereo partly shown) [Compound 133, 3-Descladinosyl-3-oxo-6-O-methyl-N9a-desmethyl-11,12-dideoxy-12,11-(oxycarbonylimino)-6′-(1-methyl-1-cyclopropylamino) Azithromycin] |
| ≤ 4 µg/mL | 8 to 32 µg/mL (≈ 12.2 to 48.8 µM) | ≥ 32 µg/mL | 8 to 32 µg/mL (≈ 12.2 to 48.8 µM) | ≤ 4 µg/mL | CC[C@H]1OC(=O)C(C)C(=O)[C@H](C)[C@@H](O[C@@H]2O[C@H](CC(C)C)CC(N(C)C)[C@H]2O)[C@](C)(OC)C[C@@H](C)CN[C@H](C)[C@H]2NC(=O)O[C@@]21C (stereo partly shown) [Compound 184, 3-Desdadinosyl-3-oxo-6-O-methyl-N9a-desmethyl-11,12-dideoxy-12,11-(oxycarbonylimino)-6′-isopropyl Azithromycin] |
| ≤ 4 µg/mL | ≥ 32 µg/mL | ≥ 32 µg/mL | 8 to 32 µg/mL (≈ 10 to 40 µM) | ≥ 32 µg/mL | CC[C@H]1OC(=O)[C@@](C)(F)C(=O)[C@H](C)[C@@H](O[C@@H]2OC(CNc3ccc(-c4cncnc4)cc3)CC(N(C)C)C2O)[C@](C)(OC)C[C@@H](C)C(=O)[C@H](C)[C@H]2NC(=O)O[C@@]21C (stereo partly shown) [Compound 94] |
